Assay results published in patent publication US9969762B2.
In brackets after ≈: the same amount, converted by molar mass. Where two headings read alike, the source gives them in different places.

What was measured:
[1] = system: Agrobacterium tumefaciens; experiment: Antibacterial activity (MIC and MBC) in TY medium; assay type: cell-based; details: 36 h of culture at 30° C.; for MIC: TY medium; for MBC: plated on TY agar
Dickeya dianthicola = experiment: Antibacterial activity (MIC and MBC) in TY medium; assay type: cell-based; details: 36 h of culture at 30° C.; for MIC: TY medium; for MBC: plated on TY agar
Phytophthora infestans = experiment: microbe, parasite or virus in culture; assay type: cell-based; details: for Average diameters of inhibition zone: after 6 days, 20 mg in 200 μl distilled water, spots of 10 μl
[2] = system: Pectobacterium atrosepticum; experiment: Antibacterial activity (MIC and MBC) in TY medium; assay type: cell-based; details: 36 h of culture at 30° C.; for MIC: TY medium; for MBC: plated on TY agar
[3] = system: Agrobacterium tumefaciens, Pectobacterium atrosepticum and Dickeya dianthicola bacteria; experiment: Antibacterial activity, summary statements over the bacteria tested; assay type: cell-based; details: for inhibition of the growth of the bacteria (in words): after 36 h of incubation at 30° C., compared with 4-NPO
Fusarium sambucinum = details: compound in methanol, more than 10 days at 20° C.
Experimental: (§1) The antifungal activity of the N-alkyl-glycosyl(di)amine derivatives of formula (I) and of the N-alkyl-glycamine derivatives of formula (III) synthesized according to the process of the invention was evaluated on two fungi: Fusarium roseum and Fusarium sambucinum.
(§2) For this, 500 μl of solution comprising the test derivative, dissolved in DMSO or methanol, are mixed with 19.5 ml of malt agar medium (Sigma aldrich) allowing the growth of these two Fusarium isolates. The test derivative is prepared in 2 ml of methanol, then mixed with 18 ml of malt agar medium (Sigma aldrich). A spot of 10 μl of culture of each Fusarium is then deposited at the center of each Petri dish. After 10 days of incubation at 20° C., the growth diameters are measured.
(§3) The range of concentrations of N-alkyl-glycosyl(di)amine derivatives of formula (I) tested ranges from 0.1 to 25 μmol/ml.
(§4) The Fusarium growth on media containing the various molecules is compared with that obtained only with DMSO or methanol.
(§5) The same antifungal evaluation protocol as the one previously described with the compound Ij was applied for other N-alkyl-glycosyl(di)amine derivatives of formula (I) and N-alkyl-glycamine derivatives of formula (III) at concentrations ranging from 1 to 20 μmol/ml.
(§6) 2 ml of solution comprising the test compound dissolved in methanol are mixed with 18 ml of agar malt medium (Sigma aldrich) allowing the growth of these two Fusarium isolates. A spot of 10 μl of culture of each Fusarium is then deposited at the center of each Petri dish. After more than 10 days of incubation at 20° C., the growth diameters are measured.

Fusarium roseum = details: compound in methanol, more than 10 days at 20° C.
Experimental: as §1, §2, §3, §4, §5, §6

Row | SMILES | MIC [1] | MBC [1] | MIC (Dickeya dianthicola) | MBC (Dickeya dianthicola) | Average diameters of inhibition zone (Phytophthora infestans) | MIC [2] | MBC [2] | bactericidal activity (in words) [3] | inhibition of the growth of the bacteria (in words) [3] | Inhibition of the growth of the Fusarium sambucinum fungi (Fusarium sambucinum; 1 μmol/ml) | Inhibition of the growth of the Fusarium sambucinum fungi (Fusarium sambucinum; 2.5 μmol/ml) | Inhibition of the growth of the Fusarium sambucinum fungi (Fusarium sambucinum; 5 μmol/ml) | Inhibition of the growth of the Fusarium roseum fungi (Fusarium roseum; 1 μmol/ml) | Inhibition of the growth of the Fusarium roseum fungi (Fusarium roseum; 2.5 μmol/ml) | Inhibition of the growth of the Fusarium roseum fungi (Fusarium roseum; 5 μmol/ml) | further results
1 | CCCCCCCCCCCCNCC(O)C(O)C(O)C(O)CO (stereo not shown) [compound IIIb] | 16 µg/mL (≈ 45.8 µM) | 32 µg/mL (≈ 91.6 µM) | 62.5 µg/mL (≈ 179 µM) | 62.5 µg/mL (≈ 179 µM) | 20 mm | 32 µg/mL (≈ 91.6 µM) | 32 µg/mL (≈ 91.6 µM) | showed a bactericidal activity | inhibition of the growth of the bacteria was observed | 96% | 96% | 100% | 100% | 100% | 100% | 
2 | CCCCCCCCCCCCNCC(O)C(O)C(O)C(O)CO (stereo not shown) [compound IIIc] | >500 µg/mL | >500 µg/mL | >500 µg/mL | >500 µg/mL | 18 mm | 62.5 µg/mL (≈ 179 µM) | 62.5 µg/mL (≈ 179 µM) | showed a bactericidal activity | inhibition of the growth of the bacteria was observed | 98% | 100% | 100% | 100% | 100% | 100% | 
3 | CCCCCCCCCCCCNCC(O)C(O)C(O)C(C)O (stereo not shown) [compound IIIa] | 16 µg/mL (≈ 48 µM) | 62.5 µg/mL (≈ 187 µM) | 62.5 µg/mL (≈ 187 µM) | 62.5 µg/mL (≈ 187 µM) | 24 mm | 32 µg/mL (≈ 95.9 µM) | 32 µg/mL (≈ 95.9 µM) | showed a bactericidal activity | inhibition of the growth of the bacteria was observed | 100% | 100% | 100% | 100% | 100% | 100% | 
4 | CCCCCNC1OC(C)[C@H](O)C(O)C1O (stereo partly shown) [compound Ie] | 4 µg/mL (≈ 17.1 µM) | 8 µg/mL (≈ 34.3 µM) |  |  |  | 16 µg/mL (≈ 68.6 µM) | 16 µg/mL (≈ 68.6 µM) | showed a bactericidal activity | inhibition of the growth of the bacteria was observed | 95% | 96% | 100% | 94% | 96% | 100% | MIC (Dickeya dianthicola; Dickeya dianthicola, read-out: MIC): 16 µg/mL (≈ 68.6 µM); MBC (Dickeya dianthicola; Dickeya dianthicola, read-out: MBC): 16 µg/mL (≈ 68.6 µM); zone of inhibition at 20000 µg/disc (Phytophthora infestans; Phytophthora infestans, 144 h, read-out: Average diameters of inhibition zone): 21 mm; Inhibition of the growth of the Fusarium sambucinum fungi (Fusarium sambucinum; 10 μmol/ml): 100%; Inhibition of the growth of the Fusarium sambucinum fungi (Fusarium sambucinum; 20 μmol/ml): 100%; Inhibition of the growth of the Fusarium roseum fungi (Fusarium roseum; 10 μmol/ml): 100%; Inhibition of the growth of the Fusarium roseum fungi (Fusarium roseum; 20 μmol/ml): 100%
